# Experimental data: US20260070945A1, “MACROCYCLIC IMMUNOMODULATORS” (Bristol-Myers Squibb Company, priority 2022, published 2026)
# Where a SMILES comes first, the peptide text is derived from it. Bridges are numbered along the chain shown (N, C = ends). [ ]: non-standard residue; d: D form. The star is where a group is joined. Phe(4-COOH) = N[C@@H](Cc1ccc(C(=O)O)cc1)C(=O)O; Bip = N[C@@H](Cc1ccc(-c2ccccc2)cc1)C(=O)O; 4Pal = N[C@@H](Cc1ccncc1)C(=O)O; Cha = N[C@@H](CC1CCCCC1)C(=O)O; Cit = NC(=O)NCCC[C@H](N)C(=O)O; Carboxymethyl = O=C(O)C*; NMeA = CN[C@@H](C)C(=O)O; Orn = NCCC[C@H](N)C(=O)O; Aun = NCCCCCCCCCCC(=O)O; Dab = NCC[C@H](N)C(=O)O; Dap = NC[C@H](N)C(=O)O; AEEA = NCCOCCOCC(=O)O
# Target: T1, PD-1/PD-L1 interaction (PE-labeled human PD-L1-Ig binding to Jurkat cell line over-expressing human PD-1) (Homo sapiens, UniProt Q15116)
# T1 construct: expressed in transfected cells; host or cells: Jurkat
# T1 sequence (Q15116 25-288): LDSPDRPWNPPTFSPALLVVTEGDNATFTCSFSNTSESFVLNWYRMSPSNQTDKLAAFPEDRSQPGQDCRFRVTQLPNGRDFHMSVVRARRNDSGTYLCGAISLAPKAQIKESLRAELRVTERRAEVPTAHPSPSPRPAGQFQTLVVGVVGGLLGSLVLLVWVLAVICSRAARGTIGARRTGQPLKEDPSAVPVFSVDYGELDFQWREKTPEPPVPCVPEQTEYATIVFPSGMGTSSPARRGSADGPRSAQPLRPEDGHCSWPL
# Test: Jurkat-PD-1 Cell Binding High-Content Screening Assay (CBA)
# Conditions: Jurkat-hPD-1 cells, PE-labeled PD-L1-Ig 20 nM final; read-out: Jurkat HPD1 PDL1 IC50
# Procedure, shortened: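 Read-out: high-content imaging of cell-bound PE fluorescence, with Hoechst 33342 nuclear counterstain after paraformaldehyde fixation. Before labeled ligand (20 nM final, 1 h) was added, compound sat on the cells for 2 h at 37 °C in DMEM/10% FCS.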
row,Compound,IC50 [nM]
1,CC(C)C[C@@H]1NC(=O)[C@H](Cc2c[nH]c3ccccc23)NC(=O)[C@H](CC(=O)O)NC(=O)[C@H](Cc2ccncc2)NC(=O)[C@H](Cc2ccc(OCC(=O)O)cc2)NC(=O)CSC[C@@H](C(=O)N[C@@H](CN)C(=O)NCCOCCOCC(=O)NCCCCCCCCCCC(=O)O)NC(=O)[C@H](CO)NC(=O)[C@H](C(C)C)NC(=O)[C@H](CC2CCCCC2)NC(=O)[C@H](CCN)NC(=O)[C@@H](CC(C)C)NC(=O)[C@H](C)N(C)C(=O)[C@H](C(C)C)NC(=O)[C@H](Cc2ccc(-c3ccccc3)cc2)NC1=O [Example 1088] ({CH2CO}-Y(Carboxymethyl)[4Pal]DWL[Bip]V[NMeA][dL][Dab][Cha]VSC[Dap][AEEA][Aun]-OH; thioether N-14),7.1
2,CC(C)C[C@@H]1NC(=O)[C@H](Cc2c[nH]c3ccccc23)NC(=O)[C@H](CC(=O)O)NC(=O)[C@H](Cc2ccncc2)NC(=O)[C@H](Cc2ccc(OCC(=O)O)cc2)NC(=O)CSC[C@@H](C(=O)N[C@@H](CCN)C(=O)NCCOCCOCC(=O)NCCCCCCCCCCC(=O)O)NC(=O)[C@H](CO)NC(=O)[C@H](C(C)C)NC(=O)[C@H](CC2CCCCC2)NC(=O)[C@H](CCN)NC(=O)[C@@H](CC(C)C)NC(=O)[C@H](C)N(C)C(=O)[C@H](C(C)C)NC(=O)[C@H](Cc2ccc(-c3ccccc3)cc2)NC1=O [Example 1089] ({CH2CO}-Y(Carboxymethyl)[4Pal]DWL[Bip]V[NMeA][dL][Dab][Cha]VSC[Dab][AEEA][Aun]-OH; thioether N-14),5.2
3,CC(C)C[C@@H]1NC(=O)[C@H](Cc2c[nH]c3ccccc23)NC(=O)[C@H](CC(=O)O)NC(=O)[C@H](Cc2ccncc2)NC(=O)[C@H](Cc2ccc(OCC(=O)O)cc2)NC(=O)CSC[C@@H](C(=O)N[C@@H](CCCNC(=N)N)C(=O)NCCOCCOCC(=O)NCCCCCCCCCCC(=O)O)NC(=O)[C@H](CO)NC(=O)[C@H](C(C)C)NC(=O)[C@H](CC2CCCCC2)NC(=O)[C@H](CCN)NC(=O)[C@@H](CC(C)C)NC(=O)[C@H](C)N(C)C(=O)[C@H](C(C)C)NC(=O)[C@H](Cc2ccc(-c3ccccc3)cc2)NC1=O [Example 1092] ({CH2CO}-Y(Carboxymethyl)[4Pal]DWL[Bip]V[NMeA][dL][Dab][Cha]VSCR[AEEA][Aun]-OH; thioether N-14),11.3
4,CC(C)C[C@@H]1NC(=O)[C@H](Cc2c[nH]c3ccccc23)NC(=O)[C@H](CC(=O)O)NC(=O)[C@H](Cc2ccc(C(=O)O)cc2)NC(=O)[C@H](Cc2ccc(OCC(=O)O)cc2)NC(=O)CSC[C@@H](C(=O)NCCOCCOCC(=O)NCCCCCCCCCCC(=O)O)NC(=O)[C@H](CN)NC(=O)[C@H](C(C)C)NC(=O)[C@H](CC2CCCCC2)NC(=O)[C@H](CCN)NC(=O)[C@@H](CC(C)C)NC(=O)[C@H](C)N(C)C(=O)[C@H](C(C)C)NC(=O)[C@H](Cc2ccc(-c3ccccc3)cc2)NC1=O [Example 1093] ({CH2CO}-Y(Carboxymethyl)[Phe(4-COOH)]DWL[Bip]V[NMeA][dL][Dab][Cha]V[Dap]C[AEEA][Aun]-OH; thioether N-14),14.6
5,CC(C)C[C@@H]1NC(=O)[C@H](Cc2c[nH]c3ccccc23)NC(=O)[C@H](CC(=O)O)NC(=O)[C@H](Cc2ccc(C(=O)O)cc2)NC(=O)[C@H](Cc2ccc(OCC(=O)O)cc2)NC(=O)CSC[C@@H](C(=O)N[C@@H](CN)C(=O)NCCCCCCCCCCC(=O)O)NC(=O)[C@H](CCCNC(N)=O)NC(=O)[C@H](C(C)C)NC(=O)[C@H](CC2CCCCC2)NC(=O)[C@H](CCN)NC(=O)[C@@H](CC(C)C)NC(=O)[C@H](C)N(C)C(=O)[C@H](C(C)C)NC(=O)[C@H](Cc2ccc(-c3ccccc3)cc2)NC1=O [Example 1098] ({CH2CO}-Y(Carboxymethyl)[Phe(4-COOH)]DWL[Bip]V[NMeA][dL][Dab][Cha]V[Cit]C[Dap][Aun]-OH; thioether N-14),8.6
6,CC(C)C[C@@H]1NC(=O)[C@H](Cc2c[nH]c3ccccc23)NC(=O)[C@H](CC(=O)O)NC(=O)[C@H](Cc2ccc(C(=O)O)cc2)NC(=O)[C@H](Cc2ccc(OCC(=O)O)cc2)NC(=O)CSC[C@@H](C(=O)N[C@@H](CCCCN)C(=O)NCCCCCCCCCCC(=O)O)NC(=O)[C@H](CCCNC(N)=O)NC(=O)[C@H](C(C)C)NC(=O)[C@H](CC2CCCCC2)NC(=O)[C@H](CCN)NC(=O)[C@@H](CC(C)C)NC(=O)[C@H](C)N(C)C(=O)[C@H](C(C)C)NC(=O)[C@H](Cc2ccc(-c3ccccc3)cc2)NC1=O [Example 1099] ({CH2CO}-Y(Carboxymethyl)[Phe(4-COOH)]DWL[Bip]V[NMeA][dL][Dab][Cha]V[Cit]CK[Aun]-OH; thioether N-14),9.8
7,CC(C)C[C@@H]1NC(=O)[C@H](Cc2c[nH]c3ccccc23)NC(=O)[C@H](CC(=O)O)NC(=O)[C@H](Cc2ccc(C(=O)O)cc2)NC(=O)[C@H](Cc2ccc(OCC(=O)O)cc2)NC(=O)CSC[C@@H](C(=O)N[C@@H](CCCNC(=N)N)C(=O)NCCCCCCCCCCC(=O)O)NC(=O)[C@H](CCCNC(N)=O)NC(=O)[C@H](C(C)C)NC(=O)[C@H](CC2CCCCC2)NC(=O)[C@H](CCN)NC(=O)[C@@H](CC(C)C)NC(=O)[C@H](C)N(C)C(=O)[C@H](C(C)C)NC(=O)[C@H](Cc2ccc(-c3ccccc3)cc2)NC1=O [Example 1100] ({CH2CO}-Y(Carboxymethyl)[Phe(4-COOH)]DWL[Bip]V[NMeA][dL][Dab][Cha]V[Cit]CR[Aun]-OH; thioether N-14),19.8

# Second part, the molecule after the results:
row,IC50 [nM],Compound
1,20.9,CC(C)C[C@@H]1NC(=O)[C@H](Cc2c[nH]c3ccccc23)NC(=O)[C@H](CC(=O)O)NC(=O)[C@H](Cc2ccncc2)NC(=O)[C@H](Cc2ccc(OCC(=O)O)cc2)NC(=O)CSC[C@@H](C(=O)N[C@@H](CCCN)C(=O)NCCCCCCCCCCC(=O)O)NC(=O)[C@H](CO)NC(=O)[C@H](C(C)C)NC(=O)[C@H](CC2CCCCC2)NC(=O)[C@H](CCN)NC(=O)[C@@H](CC(C)C)NC(=O)[C@H](C)N(C)C(=O)[C@H](C(C)C)NC(=O)[C@H](Cc2ccc(-c3ccccc3)cc2)NC1=O [Example 1084] ({CH2CO}-Y(Carboxymethyl)[4Pal]DWL[Bip]V[NMeA][dL][Dab][Cha]VSC[Orn][Aun]-OH; thioether N-14)
2,15.4,CC(C)C[C@@H]1NC(=O)[C@H](Cc2c[nH]c3ccccc23)NC(=O)[C@H](CC(=O)O)NC(=O)[C@H](Cc2ccncc2)NC(=O)[C@H](Cc2ccc(OCC(=O)O)cc2)NC(=O)CSC[C@@H](C(=O)N[C@@H](CCCCN)C(=O)NCCCCCCCCCCC(=O)O)NC(=O)[C@H](CO)NC(=O)[C@H](C(C)C)NC(=O)[C@H](CC2CCCCC2)NC(=O)[C@H](CCN)NC(=O)[C@@H](CC(C)C)NC(=O)[C@H](C)N(C)C(=O)[C@H](C(C)C)NC(=O)[C@H](Cc2ccc(-c3ccccc3)cc2)NC1=O [Example 1085] ({CH2CO}-Y(Carboxymethyl)[4Pal]DWL[Bip]V[NMeA][dL][Dab][Cha]VSCK[Aun]-OH; thioether N-14)
3,31,CC(C)C[C@@H]1NC(=O)[C@H](Cc2c[nH]c3ccccc23)NC(=O)[C@H](CC(=O)O)NC(=O)[C@H](Cc2ccncc2)NC(=O)[C@H](Cc2ccc(OCC(=O)O)cc2)NC(=O)CSC[C@@H](C(=O)N[C@@H](CCCNC(=N)N)C(=O)NCCCCCCCCCCC(=O)O)NC(=O)[C@H](CO)NC(=O)[C@H](C(C)C)NC(=O)[C@H](CC2CCCCC2)NC(=O)[C@H](CCN)NC(=O)[C@@H](CC(C)C)NC(=O)[C@H](C)N(C)C(=O)[C@H](C(C)C)NC(=O)[C@H](Cc2ccc(-c3ccccc3)cc2)NC1=O [Example 1086] ({CH2CO}-Y(Carboxymethyl)[4Pal]DWL[Bip]V[NMeA][dL][Dab][Cha]VSCR[Aun]-OH; thioether N-14)
4,33.2,CC(C)C[C@@H]1NC(=O)[C@H](Cc2c[nH]c3ccccc23)NC(=O)[C@H](CC(=O)O)NC(=O)[C@H](Cc2ccncc2)NC(=O)[C@H](Cc2ccc(OCC(=O)O)cc2)NC(=O)CSC[C@@H](C(=O)N[C@@H](Cc2c[nH]cn2)C(=O)NCCCCCCCCCCC(=O)O)NC(=O)[C@H](CO)NC(=O)[C@H](C(C)C)NC(=O)[C@H](CC2CCCCC2)NC(=O)[C@H](CCN)NC(=O)[C@@H](CC(C)C)NC(=O)[C@H](C)N(C)C(=O)[C@H](C(C)C)NC(=O)[C@H](Cc2ccc(-c3ccccc3)cc2)NC1=O [Example 1087] ({CH2CO}-Y(Carboxymethyl)[4Pal]DWL[Bip]V[NMeA][dL][Dab][Cha]VSCH[Aun]-OH; thioether N-14)
5,8.3,CC(C)C[C@@H]1NC(=O)[C@H](Cc2c[nH]c3ccccc23)NC(=O)[C@H](CC(=O)O)NC(=O)[C@H](Cc2ccncc2)NC(=O)[C@H](Cc2ccc(OCC(=O)O)cc2)NC(=O)CSC[C@@H](C(=O)N[C@@H](CCCN)C(=O)NCCOCCOCC(=O)NCCCCCCCCCCC(=O)O)NC(=O)[C@H](CO)NC(=O)[C@H](C(C)C)NC(=O)[C@H](CC2CCCCC2)NC(=O)[C@H](CCN)NC(=O)[C@@H](CC(C)C)NC(=O)[C@H](C)N(C)C(=O)[C@H](C(C)C)NC(=O)[C@H](Cc2ccc(-c3ccccc3)cc2)NC1=O [Example 1090] ({CH2CO}-Y(Carboxymethyl)[4Pal]DWL[Bip]V[NMeA][dL][Dab][Cha]VSC[Orn][AEEA][Aun]-OH; thioether N-14)
6,6.8,CC(C)C[C@@H]1NC(=O)[C@H](Cc2c[nH]c3ccccc23)NC(=O)[C@H](CC(=O)O)NC(=O)[C@H](Cc2ccncc2)NC(=O)[C@H](Cc2ccc(OCC(=O)O)cc2)NC(=O)CSC[C@@H](C(=O)N[C@@H](CCCCN)C(=O)NCCOCCOCC(=O)NCCCCCCCCCCC(=O)O)NC(=O)[C@H](CO)NC(=O)[C@H](C(C)C)NC(=O)[C@H](CC2CCCCC2)NC(=O)[C@H](CCN)NC(=O)[C@@H](CC(C)C)NC(=O)[C@H](C)N(C)C(=O)[C@H](C(C)C)NC(=O)[C@H](Cc2ccc(-c3ccccc3)cc2)NC1=O [Example 1091] ({CH2CO}-Y(Carboxymethyl)[4Pal]DWL[Bip]V[NMeA][dL][Dab][Cha]VSCK[AEEA][Aun]-OH; thioether N-14)
